Reference: US20210145801A1, “THERAPY FOR PROTEIN MISFOLDING DISEASE” (WREN THERAPEUTICS LIMITED, priority 2018, published 2021)
“Also recorded” adds a separate entry of the source. Like-named read-outs stand apart in the source and are kept apart here.

Key:
[1] = Pharmacokinetic study, single oral dose; type: in vivo, male, Swiss Albino mice; details: 11.5 mg/kg p.o.; for concentration at 6 h: oral
Experimental: The pharmacokinetic profile was assessed in male, Swiss Albino mice in a discrete study using a single per oral dose of Netoglitazone (11.5 mg/kg, 30 μmoles/kg) formulated as a solution in 10% NMP/90% Solutol (as a 20% v/v solution in PBS). The dosing concentration was 2.3 mg/mL with a dosing volume of 5.0 mL/kg. Data were derived from the average of 3 animals per timepoint (terminal sampling). Plasma samples were collected at 0.25, 0.50, 1.0, 2.0, 4.0, 6.0, 8.0 and 24 hours by protein precipitation method with acetonitrile. Brain samples were collected at 6.0 and 24 hours by brain homogenisation and protein precipitation method with acetonitrile. Cerebrospinal fluid (CSF) samples were collected at 6.0 and 24 hours by protein precipitation method with acetonitrile. Samples were analysed using UHPLC with TOF mass spectrometry using electrospray ionisation.

[2] = molecular target: T1, Aβ plaques in AD worms (GMC101) (Homo sapiens, UniProt P05067); assay: NIAD-4 staining of plaques load in living AD worms; type: in vivo, C. elegans
T1 construct: unc-54p::A-beta-1-42 expresses full-length human Aβ42 peptide in body wall muscle cells; expressed in transfected cells; host or cells: C. elegans strain GMC101 (dvIs100), body wall muscle cells
Experimental: GMC101 dvIs100 [unc-54p::A-beta-1-42::unc-54 3′UTR+mtl-2p::GFP]. mtl-2p::GFP produces constitutive expression of GFP in intestinal cells. unc-54p::A-beta-1-42 expresses full-length human Aβ42 peptide in body wall muscle cells that aggregates in vivo. Shifting L4 or young adult animals from 20° to 24° C. causes paralysis (G. McColl et al., Utility of an improved model of amyloid-beta (Aβ1-42) toxicity in Caenorhabditis elegans for drug screening for Alzheimer's disease. Mol Neurodegener. 7, 57 (2012));
Briefly, Netoglitazone stocks (5 mM in 100% DMSO) were used at an appropriate concentration to seed 9-cm NGM plates. Plates were then placed in a laminar flow hood at room temperature (22° C.) for up to 4 hours to dry. […]
Plaques staining was carried out as previously described (J. Habchi et al. (2016); M. Perni et al., A natural product inhibits the initiation of α-synuclein aggregation & suppresses its toxicity. Proc. Natl. Acad. Sci. U.S.A. 114, E1009-E1017 (2017)). […] Images were captured with a Zeiss Axio Observer D1 fluorescence microscope (Carl Zeiss Microscopy GmbH) with a 20× objective and a 49004 ET-CY3/TRITC filter (Chroma Technology Corp). Fluorescence intensity was calculated using ImageJ software (National Institutes of Health) and then normalized as the corrected total cell fluorescence. […] Statistical significance was determined using t tests.

[3] = test system: control animals (N2); assay: Maximum tolerable dose in control animals; parameters: species or system C. elegans; details: in vivo
Experimental: Briefly, Netoglitazone stocks (5 mM in 100% DMSO) were used at an appropriate concentration to seed 9-cm NGM plates. Plates were then placed in a laminar flow hood at room temperature (22° C.) for up to 4 hours to dry. C. elegans cultures were then transferred onto media seeded with compound as L4 stage or Day 3 for late treatments and incubated at 24° for the whole experiment. Experiments were carried out at different Netoglitazone concentrations ranging from 0.05 to 500 μM in 1% DMSO. As controls, plates seeded only with 1% DMSO were used.

[4] = molecular target: T2, Aβ42 (Homo sapiens, UniProt P05067); assay: Seeded Aβ42 aggregation kinetics (2% or 50% preformed fibril seeds); type: biochemical; details: 2 μM Aβ42; 50% seeds; up to 20-fold excess
T2 construct: made in house; host or cells: E. coli BL21 Gold (DE3)
Experimental: For the seeded experiments, preformed fibrils were prepared just prior to the experiment. Kinetic experiments were set up as described above for 5 μM Aβ42 samples in 20 mM sodium phosphate buffer, pH 8 with […] EDTA, 0.02% NaN3 and 20 μM ThT. The ThT fluorescence was monitored for 3 hours to verify the formation of fibrils. Samples were then collected from the wells into low-binding tubes. Under the considered conditions (i.e. 5 μM Aβ42), the monomer concentration is negligible at equilibrium. The final concentration of fibrils, in monomer equivalents, was considered equal to the initial concentration of monomer. Fibrils were then added to freshly prepared monomer in order to reach either 2% or 50% final concentration of seeds in the absence or the presence of Netoglitazone.
Inhibitors can interfere with the aggregation process by inhibiting one or more of the individual microscopic steps. […]

[5] = male, Swiss Albino, mouse, plasma, po, single dose

T1 sequence (P05067 672-713 limits assumed): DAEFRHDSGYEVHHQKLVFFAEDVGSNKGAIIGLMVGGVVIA
T2 sequence (P05067 671-713): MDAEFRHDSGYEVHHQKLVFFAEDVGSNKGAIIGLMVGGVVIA

With `O=C1NC(=O)C(Cc2ccc3cc(OCc4ccccc4F)ccc3c2)S1` (stereo not drawn) [Netoglitazone] the “Brain penetration across the blood brain barrier” value [1] was “good brain penetration across the blood brain barrier”, the concentration at 6 h ([1]; male, Swiss Albino, mouse, CSF, read-out: CSF levels) was 50 ng/mL and the concentration at 6 h ([1]; male, Swiss Albino, mouse, brain homogenate, read-out: Total brain levels) was 8540 ng/g. For the same compound, the Cmax [1, 5] was 14400 ng/mL, the Tmax [1, 5] was 6 h and the “Plaques load in AD worms (NIAD-4 fluorescence)” value ([2]; 0.5 μM administered at L4, day 6 of adulthood) was “significantly decrease the plaques load; also recorded: Decrease in the plaques load in AD worms”. For the same compound, the “Plaques load in AD worms after late administration” value ([2]; administered at D3 of adulthood, read at D6) was “significant decrease of the plaques load at D6; also recorded: decreases the plaques load at D6 of adulthood”, the “Maximum tolerable dose in control animals” value [3] was < 500 µM and the “Effect on aggregation kinetics / elongation (k+) with 50% preformed seeds” value [4] was “did not affect the aggregation kinetics; also recorded: does not affect the elongation rates of Aβ42 aggregation”.
